System: CD-1 mice
Assay: Expression of hEPO induced by LNPs (mRNA encoding hEPO) administered to mice
Format: in vivo
Settings: Table 4a, serum, 6 h after intravenous injection, ELLA Simple Plex Assay
Protocol: In some embodiments, hEPO concentrations were determined using an […] (ELLA) Simple Plex Assay (ProteinSimple) with a Human Erythroprotein cartridge. Standards for this assay are calibrated according to the 2. IRP WHO preparation. Nanoparticle compositions including mRNA are useful in the evaluation of the efficacy and usefulness of various formulations for the delivery of therapeutic and/or prophylactics. Higher levels of protein expression induced by administration of a composition including an mRNA will be indicative of higher mRNA translation and/or nanoparticle composition mRNA delivery efficiencies. As the non-RNA components are not thought to affect translational machineries themselves, a higher level of protein expression is likely indicative of a higher efficiency of delivery of the therapeutic and/or prophylactic by a given nanoparticle composition relative to other nanoparticle compositions or the absence thereof.
To assess potency of expression of lipids of the disclosure, the protein expression (hEPO) following administration of a nanoparticle comprising a lipid of the disclosure (e.g., a loaded LNP) to mice was measured.
Lipid nanoparticles (LNPs) including DSPC as a phospholipid, cholesterol as a structural lipid, PL-II (e.g., PEG-1) as a PEG lipid, a lipid according to Formula (I-1), (I), (I-A), (I-A1), (I-A2), (I-A3), or (I-A4), and an mRNA encoding hEPO were intravenously administered to CD-1 mice. The concentration of hEPO in serum was tested at 6 h after injection.

Compound	Avg. hEPO Concentration (mIU/mL)* ± Avg. SD [mIU/mL]
CCCCCC(CCCCC)CCOC(=O)CCCCCCCN(CCCCCCCC(=O)OCCC(CCCC)CCCC)CCCNc1ncccc1N [Compound 14]	5.96E+05 ± 9.17E+03
CCCCCCCC(CCCCCCC)OC(=O)CCCCCCCN(CCCCCCCC(=O)OCCC(CCCC)CCCC)CCCNc1noc(N)n1 [Compound 16]	6.19E+05 ± 1.05E+04
CCCCCCCC(CCCCCCC)OC(=O)CCCCCCCN(CCCCCCCC(=O)OCCC(CCCC)CCCC)CCCNC(=O)C1(C)CC1 [Compound 18]	5.45E+06 ± 1.26E+05

System: not listed separately
Assay: Particle size (diameter) and polydispersity index of lipid nanoparticles
Format: physicochemical
Settings: Table 2b; nanoparticles comprising the lipid
Protocol: A Zetasizer Nano ZS (Malvern Instruments Ltd, Malvern, Worcestershire, UK) can be used to determine the particle size, the polydispersity index (PDI) and the zeta potential of the nanoparticle compositions in 1×PBS in determining particle size and 15 mM PBS in determining zeta potential.
Lipid nanoparticles (e.g., empty LNPs or loaded LNPs) may be characterized by a variety of methods. For example, microscopy (e.g., transmission electron microscopy or scanning electron microscopy) may be used to examine the morphology and size distribution of a nanoparticle composition. Dynamic light scattering or potentiometry (e.g., potentiometric titrations) may be used to measure zeta potentials. Dynamic light scattering may also be utilized to determine particle sizes. Instruments such as the Zetasizer Nano ZS (Malvern Instruments Ltd, Malvern, Worcestershire, UK) may also be used to measure multiple characteristics of a nanoparticle composition, such as particle size, polydispersity index, and zeta potential.
(§1) Lipid nanoparticles (e.g., empty LNPs or loaded LNPs) including DSPC as a phospholipid, cholesterol as a structural lipid, PL-II (e.g., PEG-1) as a PEG lipid, and a lipid according to Formula (I-1), (I), (I-A), (I-A1), (I-A2), (I-A3), or (I-A4) were prepared. In some embodiments, the lipid nanoparticles further included rhodamine-DOPE as a fluorescent lipid. Tables 2a, 2b, and 3 summarize the characteristics of the formulations.

Diameter (nm)	PDI	Compound
184.7	0.366	CCCCCC(CCCCC)CCOC(=O)CCCCCCCN(CCCCCCCC(=O)OCCC(CCCC)CCCC)CCCNc1ncccc1N [Compound 14]
70.9	0.118	CCCCCCCC(CCCCCCC)OC(=O)CCCCCCCN(CCCCCCCC(=O)OCCC(CCCC)CCCC)CCCNc1noc(N)n1 [Compound 16]
144.2	0.207	CCCCCCCC(CCCCCCC)OC(=O)CCCCCCCN(CCCCCCCC(=O)OCCC(CCCC)CCCC)CCCNC(=O)C1(C)CC1 [Compound 18]

Same assay, conditions: Table 3; nanoparticles comprising the lipid

Diameter (nm)	PDI	Compound
111.7	0.282	CCCCCC(CCCCC)CCOC(=O)CCCCCCCN(CCCCCCCC(=O)OCCC(CCCC)CCCC)CCCNc1ncccc1N [Compound 14]
56.8	0.113	CCCCCCCC(CCCCCCC)OC(=O)CCCCCCCN(CCCCCCCC(=O)OCCC(CCCC)CCCC)CCCNc1noc(N)n1 [Compound 16]
95.9	0.174	CCCCCCCC(CCCCCCC)OC(=O)CCCCCCCN(CCCCCCCC(=O)OCCC(CCCC)CCCC)CCCNC(=O)C1(C)CC1 [Compound 18]

System: not listed separately
Assay: Apparent pKa of lipid nanoparticles
Format: physicochemical
Settings: Table 2b; 95% confidence interval

Apparent pKa 95% CI	Compound
6.808 to 6.931	CCCCCC(CCCCC)CCOC(=O)CCCCCCCN(CCCCCCCC(=O)OCCC(CCCC)CCCC)CCCNc1ncccc1N [Compound 14]
6.344 to 6.479	CCCCCCCC(CCCCCCC)OC(=O)CCCCCCCN(CCCCCCCC(=O)OCCC(CCCC)CCCC)CCCNc1noc(N)n1 [Compound 16]
6.744 to 6.808	CCCCCCCC(CCCCCCC)OC(=O)CCCCCCCN(CCCCCCCC(=O)OCCC(CCCC)CCCC)CCCNC(=O)C1(C)CC1 [Compound 18]

System: not listed separately
Assay: Encapsulation efficiency (% EE) of lipid nanoparticles
Format: physicochemical
Settings: Table 2b; nanoparticles comprising the lipid
Protocol: For nanoparticle compositions including an RNA, a QUANT-IT™ RIBOGREEN® RNA assay (Invitrogen Corporation Carlsbad, CA) can be used to evaluate the encapsulation of an RNA by the nanoparticle composition. The samples are diluted to a concentration of approximately 5 μg/mL in a TE buffer solution (10 mM Tris-HCl, 1 mM EDTA, pH 7.5). 50 μL of the diluted samples are transferred to a polystyrene 96 well plate and either 50 μL of TE buffer or 50 μL of a 2% Triton X-100 solution is added to the wells. The plate is incubated at a temperature of 37° C. for 15 minutes. The RIBOGREEN® reagent is diluted 1:100 in TE buffer, and 100 μL of this solution is added to each well. The fluorescence intensity can be measured using a fluorescence plate reader (Wallac Victor 1420 Multilablel Counter; Perkin Elmer, Waltham, MA) at an excitation wavelength of, for example, about 480 nm and an emission wavelength of, for example, about 520 nm. The fluorescence values of the reagent blank are subtracted from that of each of the samples and the percentage of free RNA is determined by dividing the fluorescence intensity of the intact sample (without addition of Triton X-100) by the fluorescence value of the disrupted sample (caused by the addition of Triton X-100).
The efficiency of encapsulation of a therapeutic and/or prophylactic describes the amount of therapeutic and/or prophylactic that is encapsulated or otherwise associated with a lipid nanoparticle (e.g., an empty LNP or a loaded LNP) after preparation, relative to the initial amount provided. The encapsulation efficiency is desired to be high (e.g., close to 100%). The encapsulation efficiency may be measured, for example, by comparing the amount of therapeutic and/or prophylactic in a solution containing a loaded LNP before and after breaking up the loaded LNP with one or more organic solvents or detergents. Fluorescence may be used to measure the amount of free therapeutic and/or prophylactic (e.g., RNA) in a solution. For the loaded LNPs formulated with lipids of the disclosure, the encapsulation efficiency of a therapeutic and/or prophylactic is at least 50%, for example 50%, 55%, 60%, 65%, 70%, 75%, 80%, 85%, 90%, 91%, 92%, 93%, 94%, 95%, 96%, 97%, 98%, 99%, or 100%. In some embodiments, the encapsulation efficiency is at least 80%. In some embodiments, the encapsulation efficiency is at least 90%. In some embodiments, the encapsulation efficiency of the therapeutic and/or prophylactic agent is between 80% and 100%.
as §1

% EE [%]	Compound
94.4	CCCCCC(CCCCC)CCOC(=O)CCCCCCCN(CCCCCCCC(=O)OCCC(CCCC)CCCC)CCCNc1ncccc1N [Compound 14]
98.2	CCCCCCCC(CCCCCCC)OC(=O)CCCCCCCN(CCCCCCCC(=O)OCCC(CCCC)CCCC)CCCNc1noc(N)n1 [Compound 16]
18.6	CCCCCCCC(CCCCCCC)OC(=O)CCCCCCCN(CCCCCCCC(=O)OCCC(CCCC)CCCC)CCCNC(=O)C1(C)CC1 [Compound 18]

Same assay, conditions: Table 3; nanoparticles comprising the lipid

% EE [%]	Compound
98.6	CCCCCC(CCCCC)CCOC(=O)CCCCCCCN(CCCCCCCC(=O)OCCC(CCCC)CCCC)CCCNc1ncccc1N [Compound 14]
97.7	CCCCCCCC(CCCCCCC)OC(=O)CCCCCCCN(CCCCCCCC(=O)OCCC(CCCC)CCCC)CCCNc1noc(N)n1 [Compound 16]
23.9	CCCCCCCC(CCCCCCC)OC(=O)CCCCCCCN(CCCCCCCC(=O)OCCC(CCCC)CCCC)CCCNC(=O)C1(C)CC1 [Compound 18]

System: not listed separately
Assay: Lipid nanoparticle surface hydrophobicity by Generalized Polarization by Laurdan (N-GP)
Format: physicochemical
Settings: Table 2b; nanoparticles comprising the lipid
Description: Surface hydrophobicity of nanoparticles of the disclosure can be measured by Generalized Polarization by Laurdan (GPL). In this method, Laurdan, a fluorescent aminonaphthalene ketone lipid, is post-inserted into the nanoparticle surface and the fluorescence spectrum of Laurdan is collected to determine the normalized Generalized Polarization (N-GP). In some embodiments, nanoparticles formulated with lipids of the disclosure have a surface hydrophobicity expressed as N-GP of between about 0.5 and about 1.5. For example, in some embodiments, nanoparticles formulated with lipids of the disclosure have a surface hydrophobicity expressed as N-GP of about 0.5, about 0.6, about 0.7, about 0.8, about 0.9, about 1.0, about 1.1, about 1.2, about 1.3, about 1.4, or about 1.5. In some embodiments, nanoparticles formulated with lipids of the disclosure have a surface hydrophobicity expressed as N-GP of about 1.0 or about 1.1.

LNP surface hydrophobicity (N-GP*)	Compound
1.00	CCCCCC(CCCCC)CCOC(=O)CCCCCCCN(CCCCCCCC(=O)OCCC(CCCC)CCCC)CCCNc1ncccc1N [Compound 14]
1.19	CCCCCCCC(CCCCCCC)OC(=O)CCCCCCCN(CCCCCCCC(=O)OCCC(CCCC)CCCC)CCCNc1noc(N)n1 [Compound 16]
1.05	CCCCCCCC(CCCCCCC)OC(=O)CCCCCCCN(CCCCCCCC(=O)OCCC(CCCC)CCCC)CCCNC(=O)C1(C)CC1 [Compound 18]
